Patent publication US20150368209A1, “4-Pyrimidinylamino-benzenesulfonamide derivatives and their use for the inhibition of polo-like kinase 1 (PLK1) for the treatment of cancer and their use for the treatment of bacterial infections” (VICHEM CHEMIE KUTATÓ KFT., priority 2013, published 2015)
pIC50: −log10 of the molar value. ≈ marks a conversion by molar mass, not a printed value.

Legend:
M. tuberculosis H37Rv = test: Resazurin reduction microtiter assay (REMA), growth inhibition and MIC determination; format: cell-based; settings: Mycobacterium tuberculosis, 168 h, 7 days at 37° C.; for inhibition at 20 µM: at 20 uM compound, read-out: H37Rv inh % at 20 uM; for MIC: two-fold serial dilution from 100 to 0.16 μM, read-out: H37Rv MIC90
human PLK1 kinase domain = target: T1, human PLK1 kinase domain (Homo sapiens, UniProt P53350); test: In vitro PLK1 assay (IMAP fluorescence polarization kinase assay); format: biochemical; settings: for pIC50: 30 nM PLK1 kinase domain, 16 μM ATP (=Kmapp), 90 min at room temperature; for inhibition at 10 µM: at 10 uM compound
T1 construct: Each reaction consisted of 30 nM enzyme PLK1 kinase domain
Method: The activity of the compounds described in the present invention was determined using a commercially available IMAP Screening Express Assay Kit (Molecular devices).
This method measures the change in the fluorescent polarization of a fluorescently-labeled peptide due to the effect of human PLK1 kinase domain on it. PLK1 kinase assays were performed in low protein binding 384-well plates (Corning 3676). Test compounds were diluted in 100% DMSO to 5 mM stock concentration, the further dilutions were made in H2O or 100% DMSO to desirable concentrations.
Each reaction consisted of 30 nM enzyme PLK1 kinase domain, 400 nM 5TAMRA-RGSFNDTLDFD-NH2 (Genecust Europe), 16 μM ATP (=Kmapp, Sigma-Aldrich) and kinase buffer: 20 mM HEPES pH 7.5 (Sigma-Aldrich), 1 mM DTT (Sigma-Aldrich), 10 mM MgCl2 (Sigma-Aldrich), 0.01% Triton X-100 (Sigma-Aldrich).
For each reaction, 4 or 6 μl containing 5TAMRA-RGSFNDTLDFD-NH2, ATP and kinase buffer were combined with 2 μl diluted compound in H2O or 0.04 μl compound in 100% DMSO. The kinase reaction was started by the addition of 2 μl diluted enzyme. The reaction was allowed to run for 90 minutes at room temperature. The reaction was stopped by adding 15 μl IMAP beads (1:1200 beads in progressive (40% buffer A, 60% buffer B) 1× buffer). After an additional 60 minutes, fluorescent polarization (Ex: 550-10 nm, Em: 590-10 nm, Dich: 561 nm) was measured using Analyst GT multimode reader (Molecular Devices).

T1 sequence (P53350 53-305 limits assumed): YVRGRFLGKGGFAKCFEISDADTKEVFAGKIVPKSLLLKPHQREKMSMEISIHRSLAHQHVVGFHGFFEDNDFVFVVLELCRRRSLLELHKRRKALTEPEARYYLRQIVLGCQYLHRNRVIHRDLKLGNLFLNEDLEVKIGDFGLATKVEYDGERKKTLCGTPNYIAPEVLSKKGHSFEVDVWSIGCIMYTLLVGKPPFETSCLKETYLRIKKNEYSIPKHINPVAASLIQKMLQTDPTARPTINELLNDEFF

| Structure (SMILES) | inhibition at 20 µM (M. tuberculosis H37Rv) | MIC (M. tuberculosis H37Rv) | pIC50 (human PLK1 kinase domain) | inhibition at 10 µM (human PLK1 kinase domain) | HepG2 TD50 (HepG2) |
| --- | --- | --- | --- | --- | --- |
| COc1ccc(C)cc1-c1cc(Nc2ccc(S(=O)(=O)Nc3onc(C)c3C)cc2)ncn1 [Example 9, N-(3,4-Dimethyl-isoxazol-5-yl)-4-[6-(2-methoxy-5-methyl-phenyl)-pyrimidin-4-ylamino]-benzenesulfonamide] | 101% | 19.3 µM (≈ 8.98 µg/mL) | 6.09 | 67.6% | 19.6 |
| COc1ccc(C(C)(C)C)cc1-c1cc(Nc2ccc(S(=O)(=O)Nc3onc(C)c3C)cc2)ncn1 [Example 6, 4-[6-(5-tert-Butyl-2-methoxy-phenyl)-pyrimidin-4-ylamino]-N-(3,4-dimethyl-isoxazol-5-yl)-benzenesulfonamide] | 94.1% | 19.6 µM (≈ 9.95 µg/mL) |  | 26.1% | 19.6 |
| Cc1noc(NS(=O)(=O)c2ccc(Nc3cc(-c4cc(Cl)ccc4Cl)ncn3)cc2)c1C [Example 16, 4-[6-(2,5-Dichloro-phenyl)-pyrimidin-4-ylamino]-N-(3,4-dimethyl-isoxazol-5-yl)-benzenesulfonamide] | 100% | 11.8 µM (≈ 5.76 µg/mL) | 6.22 | 7.9% | 2.37 |
| Cc1noc(NS(=O)(=O)c2ccc(Nc3cc(-c4ccccc4OC(F)(F)F)ncn3)cc2)c1C [Example 2, N-(3,4-Dimethyl-isoxazol-5-yl)-4-[6-(2-trifluoromethoxy-phenyl)-pyrimidin-4-ylamino]-benzenesulfonamide] | 102% | 9.71 µM (≈ 4.91 µg/mL) | 6.16 | 69% |  |
| Cc1noc(NS(=O)(=O)c2ccc(Nc3cc(-c4cccc5ccccc45)ncn3)cc2)c1C [Example 43, N-(3,4-Dimethyl-isoxazol-5-yl)-4-(6-naphthalen-1-yl-pyrimidin-4-ylamino)-benzenesulfonamide] | -9.2% |  | 4.86 | 58.8% |  |
| Cc1noc(NS(=O)(=O)c2ccc(Nc3cc(-c4ccccc4)ncn3)cc2)c1C [Example 39, N-(3,4-Dimethyl-isoxazol-5-yl)-4-(6-phenyl-pyrimidin-4-ylamino)-benzenesulfonamide] | -22.2% |  |  | 57.9% |  |
| Cc1noc(NS(=O)(=O)c2ccc(Nc3cc(-c4ccc(F)cc4F)ncn3)cc2)c1C [Example 21, 4-[6-(2,4-Difluoro-phenyl)-pyrimidin-4-ylamino]-N-(3,4-dimethyl-isoxazol-5-yl)-benzenesulfonamide] | -3.7% |  | 6.43 | 65.8% |  |
| COc1ccc(-c2cc(Nc3ccc(S(=O)(=O)Nc4onc(C)c4C)cc3)ncn2)c(OC)c1 [Example 37, 4-[6-(2,4-Dimethoxy-phenyl)-pyrimidin-4-ylamino]-N-(3,4-dimethyl-isoxazol-5-yl)-benzenesulfonamide] | 101% | 13.7 µM (≈ 6.57 µg/mL) | 6.02 | 70% | 16.1 |
| COc1ccccc1-c1cc(Nc2ccc(S(=O)(=O)NC(=O)C(C)C(C)=O)cc2)ncn1 (stereo not drawn) [Example 41, 4-[6-(2-Methoxy-phenyl)-pyrimidin-4-ylamino]-N-(2-methyl-3-oxo-butyryl)-benzenesulfonamide] | -4.8% |  |  | 59% |  |
| COc1cccc(Cl)c1-c1cc(Nc2ccc(S(=O)(=O)Nc3onc(C)c3C)cc2)ncn1 [Example 15, 4-[6-(2-Chloro-6-methoxy-phenyl)-pyrimidin-4-ylamino]-N-(3,4-dimethyl-isoxazol-5-yl)-benzenesulfonamide] | 102% | 0.292 µM (≈ 0.142 µg/mL) |  | 96.4% | 0.0458 |
| Cc1noc(NS(=O)(=O)c2ccc(Nc3cc(-c4ccc(F)cc4Cl)ncn3)cc2)c1C [Example 19, 4-[6-(2-Chloro-4-fluoro-phenyl)-pyrimidin-4-ylamino]-N-(3,4-dimethyl-isoxazol-5-yl)-benzenesulfonamide] | 100% | 19.4 µM (≈ 9.22 µg/mL) | 7.33 | 60.8% |  |
| COc1cccc(-c2cc(Nc3ccc(S(=O)(=O)Nc4onc(C)c4C)cc3)ncn2)c1OC [Example 36, 4-[6-(2,3-Dimethoxy-phenyl)-pyrimidin-4-ylamino]-N-(3,4-dimethyl-isoxazol-5-yl)-benzenesulfonamide] | -9.8% |  | 5.66 | 77.3% |  |
| Cc1noc(NS(=O)(=O)c2ccc(Nc3cc(-c4ccccc4Oc4ccccc4)ncn3)cc2)c1C [Example 4, N-(3,4-Dimethyl-isoxazol-5-yl)-4-[6-(2-phenoxy-phenyl)-pyrimidin-4-ylamino]-benzenesulfonamide] | 39% |  |  | 52.7% |  |
| Cc1noc(NS(=O)(=O)c2ccc(Nc3cc(-c4ccc5c(c4)OCO5)ncn3)cc2)c1C [Example 11, 4-(6-Benzo[1,3]dioxol-5-yl-pyrimidin-4-ylamino)-N-(3,4-dimethyl-isoxazol-5-yl)-benzenesulfonamide] | -21.5% |  | 6.05 | 74.4% |  |
| Cc1noc(NS(=O)(=O)c2ccc(Nc3cc(-c4cccc(C#N)c4)ncn3)cc2)c1C [Example 34, 4-[6-(3-Cyano-phenyl)-pyrimidin-4-ylamino]-N-(3,4-dimethyl-isoxazol-5-yl)-benzenesulfonamide] | -4.3% |  |  | 58.5% |  |
| COc1ccc(OC)c(-c2cc(Nc3ccc(S(=O)(=O)Nc4onc(C)c4C)cc3)ncn2)c1 [Example 7, 4-[6-(2,5-Dimethoxy-phenyl)-pyrimidin-4-ylamino]-N-(3,4-dimethyl-isoxazol-5-yl)-benzenesulfonamide] | 58.2% |  | 6.72 | 59.6% |  |
| Cc1noc(NS(=O)(=O)c2ccc(Nc3cc(-c4ccccc4OC(C)C)ncn3)cc2)c1C [Example 13, N-(3,4-Dimethyl-isoxazol-5-yl)-4-[6-(2-isopropoxy-phenyl)-pyrimidin-4-ylamino]-benzenesulfonamide] | -23% |  | 5.74 | 88.6% |  |
| Cc1noc(NS(=O)(=O)c2ccc(Nc3cc(-c4ccccc4C(F)(F)F)ncn3)cc2)c1C [Example 1, N-(3,4-Dimethyl-isoxazol-5-yl)-4-[6-(2-trifluoromethyl-phenyl)-pyrimidin-4-ylamino]-benzenesulfonamide] | 101% | 2.77 µM (≈ 1.35 µg/mL) | 5.84 | 96.1% |  |
| COc1cccc(-c2cc(Nc3ccc(S(=O)(=O)Nc4onc(C)c4C)cc3)ncn2)c1 [Example 35, N-(3,4-Dimethyl-isoxazol-5-yl)-4-[6-(3-methoxy-phenyl)-pyrimidin-4-ylamino]-benzenesulfonamide] | -8.1% |  | 5.60 | 77.1% |  |
| COc1ccc(F)cc1-c1cc(Nc2ccc(S(=O)(=O)Nc3onc(C)c3C)cc2)ncn1 [Example 38, N-(3,4-Dimethyl-isoxazol-5-yl)-4-[6-(5-fluoro-2-methoxy-phenyl)-pyrimidin-4-ylamino]-benzenesulfonamide] | 96.4% | 19.6 µM (≈ 9.2 µg/mL) | 5.50 | 80.8% |  |
| Cc1noc(NS(=O)(=O)c2ccc(Nc3cc(-c4c(F)cccc4OC(C)C)ncn3)cc2)c1C [Example 23, N-(3,4-Dimethyl-isoxazol-5-yl)-4-[6-(2-fluoro-6-isopropoxy-phenyl)-pyrimidin-4-ylamino]-benzenesulfonamide] | 102% | 10.2 µM (≈ 5.1 µg/mL) | 5.75 | 70.4% |  |
| CCc1ccccc1-c1cc(Nc2ccc(S(=O)(=O)Nc3onc(C)c3C)cc2)ncn1 [Example 20, N-(3,4-Dimethyl-isoxazol-5-yl)-4-[6-(2-ethyl-phenyl)-pyrimidin-4-ylamino]-benzenesulfonamide] | 103% | 4.84 µM (≈ 2.18 µg/mL) | 6.02 | 73% |  |
| Cc1noc(NS(=O)(=O)c2ccc(Nc3cc(-c4cccc(C(F)(F)F)c4)ncn3)cc2)c1C [Example 42, N-(3,4-Dimethyl-isoxazol-5-yl)-4-[6-(3-trifluoromethyl-phenyl)-pyrimidin-4-ylamino]-benzenesulfonamide] | 24.2% |  |  | 17% |  |
| CCCOc1ccccc1-c1cc(Nc2ccc(S(=O)(=O)Nc3onc(C)c3C)cc2)ncn1 [Example 10, N-(3,4-Dimethyl-isoxazol-5-yl)-4-[6-(2-propoxy-phenyl)-pyrimidin-4-ylamino]-benzenesulfonamide] | -21.2% |  | 6.03 | 104% |  |
